Patent US4338320A, “Esters of 6'-hydroxycinchonine, and a method of treating arrythmia with them” (The Board of Regents of the University of Nebraska, priority 1978, dated 1982)
Entries after “also recorded” stand apart in the source; their conditions may differ. Read-outs that look alike come from different tables or passages of the source.

What was measured:
Format in all cases: in vivo
mice [1] = experiment: Aconitine-induced arrhythmia in mice
Excerpt: Aconitine was used to induce arrhythmia and a saline solution served as the control for a third group.
A dosage in the same range as that previously set forth for cupreidine was utilized with mice for the compounds 6-benzylcinchonine and 6'-allylcinchonine. Aconitine was used to induce arrhythmia and a saline solution was used with the control group.

mice [2] = experiment: Antiarrhythmic effective dose in mice (dose probit curve); conditions: for ED50: Mus musculus
Experimental: (§1) Mice were treated at varying dosage levels for both quinidine and cupreidine. A dose probit curve was generated for the effective dose and lethal dose of each compound. The respective ED50 and LD50 values were derived from those curves using techniques well known to those skilled in the art.

[3] = Lethal dose in mice (dose probit curve); conditions: mouse, in vivo; mice; from dose probit curve
Experimental: as §1

mice [4] = experiment: Lethal dose in mice (dose probit curve); conditions: result in words
Experimental: as §1

[5] = Table III, dosage in the same range as for cupreidine, saline control 160. ± 5
[6] = Table III, dosage in the same range as for cupreidine, saline control 186. ± 6
[7] = Table II, intraperitoneal, cupreidine about 20.6 to about 26.8 mg/kg, quinidine 19.5-25.8 mg/kg, saline control 193. ± 11

Structure (SMILES)	Onset of Arrhythmia (time in seconds) (mice [1]; [5]) [seconds]	Onset of Ventricular Tachycardia (time in seconds) (mice [1]; [6]) [seconds]	Onset of Ventricular Tachycardia (time in seconds) (mice [1]; [7]) [seconds]	ED50 (mice [2]; mice, from dose probit curve, read-out: ED50) [mg/kg]	LD50 [3] [mg/kg]	Onset of Arrhythmia (time in seconds) (mice [1]; Table II, intraperitoneal, cupreidine about 20.6 to about 26.8 mg/kg, quinidine 19.5-25.8 mg/kg, saline control 153. ± 5) [seconds]	ED50 (mice [2]) [mg/kg]	effectiveness as an antiarrhythmic agent, relative to quinidine (mice [2]; result in words)	toxicity relative to quinidine (mice [4])
C=CCOc1ccc2nccc([C@H](O)[C@H]3C[C@@H]4CCN3C[C@@H]4C=C)c2c1 [6'-Allylcinchonine, 6'-Allyloxycinchonine]	215. ± 9	261. ± 11	–	–	–	–	–	–	–
C=C[C@H]1C[N@@]2CC[C@H]1C[C@@H]2[C@@H](O)c1ccnc2ccc(OC)cc12 [Quinidine, reference compound]	–	–	294. ± 44	22.4	202	–	–	–	–
C=C[C@H]1CN2CC[C@H]1C[C@@H]2[C@@H](O)c1ccnc2ccc(OCc3ccccc3)cc12 [6-Benzylcinchonine, 6'-Benzyloxycinchonine]	195. ± 8	217. ± 6	–	–	–	–	–	–	–
C=CC1CN2CCC1CC2C(O)c1ccnc2ccc(O)cc12 (stereo not shown) [Cupreidine, 6'-hydroxycinchonine]	–	–	250. ± 22	–	304	198. ± 8	23.5	equal or superior to quinidine; also recorded: comparable to that of quinidine	greatly reduced toxicity
